Measurements reported in ChEMBL document CHEMBL3351773, “Effect of p-aminophenols on tyrosinase activity” (Bioorg Med Chem, 2014).
Activity calls are given as the source filed them. No cut-off for these calls is given here.

Assays:
[1] = target: T1, Tyrosinase (Agaricus bisporus) (UniProt O42713); test: Non-competitive inhibition of mushroom tyrosinase using L-tyrosine as substrate by Lineweaver-Burk double reciprocal plot method
T1 sequence (whole entry): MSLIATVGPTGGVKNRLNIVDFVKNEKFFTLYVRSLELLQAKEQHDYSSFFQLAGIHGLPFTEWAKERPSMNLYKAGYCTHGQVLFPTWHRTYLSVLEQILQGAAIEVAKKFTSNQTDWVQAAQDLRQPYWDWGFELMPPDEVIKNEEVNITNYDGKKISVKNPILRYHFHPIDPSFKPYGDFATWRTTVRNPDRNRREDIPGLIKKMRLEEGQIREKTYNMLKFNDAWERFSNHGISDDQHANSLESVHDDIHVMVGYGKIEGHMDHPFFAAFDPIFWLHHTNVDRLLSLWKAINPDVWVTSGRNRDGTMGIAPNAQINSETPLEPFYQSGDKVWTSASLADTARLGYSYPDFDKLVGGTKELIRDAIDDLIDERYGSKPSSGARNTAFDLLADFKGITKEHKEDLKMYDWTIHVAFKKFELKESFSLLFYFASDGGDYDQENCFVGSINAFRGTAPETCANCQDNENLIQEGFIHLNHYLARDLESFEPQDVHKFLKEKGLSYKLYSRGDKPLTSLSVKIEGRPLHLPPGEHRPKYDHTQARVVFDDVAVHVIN

[2] = target: T1, Tyrosinase (Agaricus bisporus); test: (§1) Inhibition of mushroom tyrosinase using L-tyrosine as substrate by spectrophotometry
Tyrosinase [3] = target: T2, Tyrosinase (Agaricus bisporus, UniProt O42713); test: as §1
T2 sequence (O42713 whole entry): T1 sequence (whole entry)

[4] = target: T1, Tyrosinase (Agaricus bisporus); test: Non-competitive inhibition of mushroom tyrosinase using L-DOPA as substrate by Lineweaver-Burk double reciprocal plot method
[5] = target: T1, Tyrosinase (Agaricus bisporus); test: (§2) Inhibition of mushroom tyrosinase using L-DOPA as substrate by spectrophotometry relative to control
Tyrosinase [6] = target: T2, Tyrosinase; test: as §2
[7] = target: T1, Tyrosinase (Agaricus bisporus); test: Inhibition of mushroom tyrosinase using L-DOPA as substrate at 200 uM by spectrophotometry relative to control
[8] = target: T1, Tyrosinase (Agaricus bisporus); test: Inhibition of mushroom tyrosinase using L-DOPA as substrate at 100 uM by spectrophotometry relative to control
[9] = target: T1, Tyrosinase (Agaricus bisporus); test: Inhibition of mushroom tyrosinase using L-tyrosine as substrate at 100 uM by spectrophotometry relative to control
[10] = target: T1, Tyrosinase (Agaricus bisporus); test: Inhibition of mushroom tyrosinase using L-tyrosine as substrate at 200 uM by spectrophotometry relative to control

inhibition [1] | inhibition [2] | IC50 (Tyrosinase [3]) [µM] | inhibition [4] | inhibition [5] | IC50 (Tyrosinase [6]) [µM] | inhibition [7] [%] | inhibition [8] [%] | inhibition [9] [%] | inhibition [10] [%] | SMILES
Active | Dose-dependent effect | 5.7 | Active | Dose-dependent effect | 30.1 | – | – | – | – | CCCCCCCCCCNc1ccc(O)cc1
Active | Dose-dependent effect | > 200 | Active | Dose-dependent effect | > 200 | 45 | 25 | 23 | 27 | CCCCCCCCCCCCNc1ccc(O)cc1
